Entries after “also recorded” stand apart in the source; their conditions may differ.
Assays:
[1] = OH radical scavenging ability test (ABTS scavenging assay, Fenton reaction); set-up: key to OH test: +: effective; −: >10 mM; settings: for IC50: ABTS competition, OD at 405 nm, 45 minutes at room temperature
Procedure: Hydroxyl radical scavenging ability was measured for derivatives obtained in preparation processes A, B, and E by the following method using an ABTS (2,2′-azinobis(3-ethylbenzthiazolin-6-sulfonic acid)) scavenging assay.
In this test, hydroxyl radicals were generated in situ by the Fenton reaction. Next, competitive reactions between ABTS and the test compounds took place, and the hydroxyl radicals were scavenged by ABTS to form ABTS^+ radical cations, or were scavenged by the test compounds.
The test compounds and Trolox® were individually dissolved in ethanol and the solutions were adjusted to a final concentration of 10 mM. Each solution was then diluted severalfold to obtain solutions at concentrations ranging from 10 mM to 1 μM.
Next, 180 μl of 1:1 ethanol-water solution was added to a multi-well ELISA plate, and then 30 μl of 1 mM aqueous ABTS solution, 30 μl of 0.5 mM aqueous Fe2SO4 solution, 30 μl of a solution of each test compound in ethanol, and 30 μl of 100 mM aqueous hydrogen peroxide solution were added. The obtained solutions were left to stand for 45 minutes at room temperature, and the absorbance (OD) at 405 nm was measured. OH radical scavenging ability was determined for each test compound based on the results of these measurements. For comparison, the test compound solutions in ethanol were substituted with ethanol alone.

[2] = DPPH scavenging ability test (active organic radical species scavenging ability); set-up: key to DPPH test: +: effective; −: >10 mM; settings: for IC50: percent decrease in OD at 550 nm, 400 μM DPPH in ethanol
Procedure: The ability of the derivatives obtained in preparation processes A and B to scavenge 2,2-diphenyl-1-picrylhydrazyl (DPPH) (active organic radical species scavenging ability) was measured by the following method.
Trolox® and the test compounds were individually dissolved in ethanol and the solutions were adjusted to a final concentration of 10 mM. Next, each solution was diluted severalfold to obtain solutions at concentrations ranging from 10 mM to 1 μM.
100 μl of each of the obtained ethanol solutions was added to a multi-well ELISA plate along with 100 μl of 400 μM DPPH solution in ethanol. The absorbance (optical density, OD) at 550 nm was measured for these solutions.
DPPH scavenging ability was determined for each test compound based on the results of these measurements. For comparison, the test compound solutions in ethanol were substituted with ethanol alone.
The scavenging ability of each test compound is presented as a percent decrease in OD with respect to the absorbance of the comparative sample.

E15 neurons [3] = settings: J. Neurochem., 90 (6), 1423-31, 2004; cited from earlier work
E15 neurons [4] = assay: Axonal growth in primary culture of CNS neurons (morphometric analysis); format: cell-based, mouse
Procedure: Fetal mouse (15 days old) cerebral hemispheres were dissected in cold Gey's balanced salt solution supplemented with glucose to isolate the neocortex. Cells were dispersed by trypsin and mechanical dissociation. Next, the cells were plated at a concentration of 200,000 cells/well onto cover slips coated with 1 μg/ml of poly-L-lysine, and the cells were cultured in a serum-containing medium (Dulbecco's modified Eagle medium, 2 mM glutamine, 1 g/l glucose, 10% fetal calf serum, and penicillin/streptomycin) in 5% CO2 at 37° C. for 24 hours.
On day 2, the medium was substituted with a chemically defined medium (Dulbecco's modified Eagle medium, 2 mM glutamine, 1 g/l glucose, 16 μg/ml putrescine, 52 ng/ml selenium, 10 μg/ml holotransferrin, 5 μg/ml insulin, and 3 ng/ml progesterone), and test compounds were added at different concentrations. The cells were cultured in 5% CO2 at 37° C. for 24 hours.
On day 3, the cells were fixed with 4% formaldehyde in phosphate buffered saline (PBS) for ten minutes. After two washes with PBS, permeation of cells was performed with 100% methanol for five minutes. […]
Photographs were randomly taken (×20 magnification) using an Axiovert 200 microscope (Zeiss) equipped with a digital camera. The axonal length of each neuron was determined using a computer-assisted image analyzer (UTHSCSA Image Tool 3.0).

[5] = read-out: IC50 (μM), OH radical scavenging ability
[6] = read-out: IC50, OH radical scavenging ability

Row | SMILES | IC50 [2] | OH test ([1]; Table 4, formula (2) compounds) | DPPH test ([2]; Table 4, formula (2) compounds) | DPPH test ([2]; Table 3, formula (1) compounds) | other results
1 | OCCCCCCCCCCCCc1cc(O)ccc1O [Synthesis Example E-(31), 2-(12-hydroxydodecyl)benzene-1,4-diol] | 0.23 mM | – | – | – | IC50 [1, 5]: 6 µM
2 | COc1ccc(OC)c(OCCCCCCCCCCCCO)c1 [Synthesis Example D-(29), 12-(2,5-dimethoxyphenoxy)dodecan-1-ol] | – | − (−: >10 mM) | − (−: >10 mM) | – | –
3 | CC1=C(CCCCCCCCCCCCCCCO)C(C)(C)CCC1=O [tCFA15, 3-(15-hydroxypentadecyl)-2,4,4-trimethyl-2-cyclohexen-1-one] | – | – | – | – | axonal growth-promoting activity in a previous study (in words) (E15 neurons [3]): showed similar results
4 | COc1ccc(OC)c(CCCCCCCCCCCCO)c1 [Synthesis Example A-(5), 12-(2,5-dimethoxyphenyl)dodecan-1-ol] | > 10 mM | – | – | − (−: >10 mM) | IC50 [1, 6]: > 10000 µM; OH test ([1]; Table 3, formula (1) compounds): − (−: >10 mM)
5 | COc1ccc(OC)c(CCCCCCCCCCCCCCCCCCO)c1 [Synthesis Example A-(9), 18-(2,5-dimethoxyphenyl)octadecan-1-ol] | > 10 mM | – | – | − (−: >10 mM) | IC50 [1, 6]: > 10000 µM; OH test ([1]; Table 3, formula (1) compounds): − (−: >10 mM)
6 | COc1cc(OC)c(OC)cc1CCCCCCCCCCCCCCCO [Synthesis Example B-(15), 15-(2,4,5-trimethoxyphenyl)pentadecan-1-ol] | – | – | – | − (−: >10 mM) | –
7 | COc1cc(OC)c(OC)cc1CCCCCCCCCCCCCCCCO [Synthesis Example B-(16), 16-(2,4,5-trimethoxyphenyl)hexadecan-1-ol] | – | – | – | − (−: >10 mM) | –
8 | COc1ccc(OC)c(CCCCCCCCCCCCCCO)c1 [Synthesis Example A-(6), 14-(2,5-dimethoxyphenyl)tetradecan-1-ol] | – | – | – | − (−: >10 mM) | OH test ([1]; Table 3, formula (1) compounds): − (−: >10 mM)
9 | OCCCCCCCCCCCCCCCc1cc(O)ccc1O [Synthesis Example E-(34), 2-(15-hydroxypentadecyl)benzene-1,4-diol] | 0.23 mM | – | – | – | IC50 [1, 5]: 6 µM
10 | Cc1c(C)c2c(c(C)c1O)CCC(C)(C(=O)O)O2 (stereo not shown) [Trolox ®, reference compound] | 0.23 mM | – | – | – | IC50 [1, 5]: 600 µM
11 | COc1ccc(OC)c(NCCCCCCCCCCO)c1 [Synthesis Example C-(24), 10-(2,5-Dimethoxyphenylamino)decan-1-ol] | – | − (−: >10 mM) | − (−: >10 mM) | – | –
12 | COc1ccc(OC)c(OCCCCCCCCCCCCCCCCO)c1 [Synthesis Example D-(30), 16-(2,5-dimethoxyphenoxy)hexadecan-1-ol] | – | − (−: >10 mM) | − (−: >10 mM) | – | –
13 | COc1ccc(OC)c(CCCCCCCCCCCCCCCCO)c1 [Synthesis Example A-(8), 16-(2,5-dimethoxyphenyl)hexadecan-1-ol] | – | – | – | − (−: >10 mM) | OH test ([1]; Table 3, formula (1) compounds): − (−: >10 mM)
14 | COc1ccc(OC)c(NCCCCCCCCCCCCO)c1 [Synthesis Example C-(23), 12-(2,5-Dimethoxyphenylamino)dodecan-1-ol] | – | − (−: >10 mM) | − (−: >10 mM) | – | –
15 | COc1cc(OC)c(OC)cc1CCCCCCCCCCCCO [Synthesis Example B-(14), 12-(2,4,5-trimethoxyphenyl)dodecan-1-ol] | > 10 mM | – | – | − (−: >10 mM) | IC50 [1, 5]: 720 µM
16 | COc1ccc(OC)c(NCCCCCCCCCCCCCCO)c1 [Synthesis Example C-(22), 14-(2,5-Dimethoxyphenylamino)tetradecan-1-ol] | – | − (−: >10 mM) | − (−: >10 mM) | – | –
17 | COc1ccc(OC)c(NCCCCCCCCCCCCCCCCO)c1 [Synthesis Example C-(21), 16-(2,5-dimethoxyphenylamino)hexadecan-1-ol] | – | − (−: >10 mM) | − (−: >10 mM) | – | –
18 | COc1cc(OC)c(OC)cc1CCCCCCCCCCCCCCO [Synthesis Example B-(13), 14-(2,4,5-trimethoxyphenyl)tetradecan-1-ol] | – | – | – | − (−: >10 mM) | –
19 | CCCCCCCCCCCCCCCCc1cc(O)ccc1O [Synthesis Example E-(33), 2-hexadecylbenzene-1,4-diol] | 1.53 mM | + | + | – | –
20 | COc1ccc(OC)c(CCCCCCCCCCCCCCCO)c1 [Synthesis Example A-(7), 15-(2,5-dimethoxyphenyl)pentadecan-1-ol] | – | – | – | − (−: >10 mM) | axonal growth-promoting activity (in words) (E15 neurons [4]; 24 hours with compound, listed as QFA15): the most active compound; also recorded: greater axonal growth-promoting ability at a lower concentration; also recorded: effective axonal growth-promoting agent; axonal growth-promoting effect, value of FIG. 4 micrographs (E15 neurons [4]; control 85 μM, the values are: axonal length): 155 µm; OH test ([1]; Table 3, formula (1) compounds): − (−: >10 mM)
21 | OCCCCCCCCCCCCCCCCCCc1cc(O)ccc1O [Synthesis Example E-(32), 2-(18-hydroxyoctadecyl)benzene-1,4-diol] | 0.23 mM | – | – | – | IC50 [1, 5]: 6 µM
22 | COc1cc(OC)c(OC)cc1CCCCCCCCCCCCCCCCCCO [Synthesis Example B-(17), 18-(2,4,5-trimethoxyphenyl)octadecan-1-ol] | > 10 mM | – | – | − (−: >10 mM) | IC50 [1, 5]: 720 µM
